Where two headings read alike, the source gives them in different places.

These results are taken from patent EP0752872B1, “NADH OXIDASE AS A TARGET IN DIAGNOSIS AND THERAPY” (Morré, D. James, priority 1994, dated 1995).

One assay relates to normal rat kidney cells. The assay is described as follows: Growth of normal rat kidney cells. Format: cell-based.
Assay [1] deals with Protein disulfide-thiol interchange activity of HeLa plasma membrane. The assay is described as follows: Protein disulfide-thiol interchange (RNAse activity with cCMP as substrate). It is filed as biochemical, human. The procedure: Estimation of protein disulfide isomerase- (PDI) like activity. Two methods were employed to determine PDI or PDI-like activity.
In the first method, ribonuclease A activity was measured using a spectrophotometric assay based on cCMP as RNAse substrate. Scrambled RNAse ([…]) was incubated together with 0.45 mM cCMP in 50 Mm Tris-MES buffer, pH 6.5, at 30°C in a final volume of 3 ml. […] A variation of this assay was to preincubate scrambled RNAse with transitional endoplasmic reticulum for 20 min in the presence or absence of 1 µM all-trans retinol (using ethanol as control) and in the presence or absence of 1 µM reduced or oxidized glutathione or a mixture of both. After this 20 min of "reactivation" of RNAse, cCMP was added to a final concentration of 0.45 mM to initiate the reaction. The increase of the absorbance at 296 nm was recorded over 25 min and the concentrations of cCMP were determined (E = 0.19 mM^-1cm^-1). Spectrophotometric measurements were with a Hitachi U3210 spectrophotometer with a thermostatic cell compartment maintained at 30°C with continuous stirring.
Preparation of scrambled RNAse substrate. To prepare the oxidized, denatured RNAse substrate (scrambled RNAse), native RNAse A (Sigma, Type 1-AS from bovine pancreas) (30 µg/ml) was incubated 1 h at 35°C in 50 mM Tris-acetate, pH 8.6, containing 9 M urea and 130 mM DTT.
Protein concentration was estimated from spectrophotometric measurement at 280 nm using native RNAse A as standard. For preparation of scrambled RNAse, the reduced RNAse was diluted to 0.5 mg/ml with 0.1 M acetic acid. Solid urea was then added to a final concentration of 10 M after which 0.1 M sarcosine hydrochloride was added and the pH adjusted to 8.5 with 1 M Tris. The mixture then was incubated in the dark for 2-3 days during which time the protein was randomly oxidized. The scrambled product was recovered by acidification to pH 4 with glacial acetic acid and elution from Sephadex G-25 in 0.1 M acetic acid. Fractions containing protein were pooled, adjusted to pH 8 and stored at 4°C.

A further assay has as its system HeLa cells. The assay is described as follows: Growth of HeLa cells in culture. Format: cell-based, human. Particulars: Homo sapiens, HeLa, 72 h. The procedure:
Growth of cells. HeLa cells (ATCC CCL2), were grown in 150 cm^2 flasks in Minimal Essential Medium (Gibco), pH 7.4. at 37°C with 10% bovine calf serum (heat-inactivated), plus 50 mg/l gentamycin sulfate (Sigma). Cells were trypsinized with Sigma IX trypsin for 1 to 2 min, harvested by scraping and taken up in TD-tris buffer (140 mM NaCl, 5 mM KCl, 0.7 mM Na2HPO4 and 25 mM Tris, pH 7.4) to a final cell concentration of 0.1 g wet weight (gww) per ml.
The number of cells initially plated was subtracted. The results were averages from duplicate experiments.

Assay [2] concerns the target T1, NADH oxidase from HeLa cell plasma membranes (Homo sapiens, UniProt Q16206).
T1 sequence (Q16206 1-610): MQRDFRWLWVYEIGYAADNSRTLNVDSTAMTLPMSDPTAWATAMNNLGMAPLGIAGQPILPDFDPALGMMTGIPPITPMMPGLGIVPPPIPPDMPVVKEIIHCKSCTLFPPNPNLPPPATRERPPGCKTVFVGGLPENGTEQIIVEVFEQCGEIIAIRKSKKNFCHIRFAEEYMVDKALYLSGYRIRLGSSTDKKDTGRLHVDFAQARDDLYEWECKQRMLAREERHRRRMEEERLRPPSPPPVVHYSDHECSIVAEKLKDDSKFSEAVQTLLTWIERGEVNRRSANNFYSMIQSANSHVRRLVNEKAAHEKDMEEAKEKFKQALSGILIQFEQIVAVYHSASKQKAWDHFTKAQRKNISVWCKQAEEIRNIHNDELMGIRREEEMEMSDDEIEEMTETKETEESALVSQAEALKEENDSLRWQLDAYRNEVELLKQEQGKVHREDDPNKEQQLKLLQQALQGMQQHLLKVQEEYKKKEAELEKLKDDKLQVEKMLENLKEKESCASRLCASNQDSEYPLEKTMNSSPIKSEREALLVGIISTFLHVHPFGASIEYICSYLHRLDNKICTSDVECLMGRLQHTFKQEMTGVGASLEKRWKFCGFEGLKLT
The assay is described as follows: Spectrophotometric NADH oxidase assay, HeLa plasma membranes. It is filed as biochemical. The procedure: Purification of plasma membranes from HeLa cells. HeLa cells were grown as suspension cultures in minimum essential medium (MEM) supplemented with horse serum, diferric transferrin and heparin. Cells were collected by centrifugation for 6 to 15 min at 1,000 to 3,000 rpm. The cell pellets were resuspended in 0.2 mM EDTA in 1 mM NaHCO3 in an approximate ratio of 1 ml per 10^8 cells and incubated on ice for 10 to 30 min to swell the cells. Homogenization was with a Polytron Homogenizer for 30 to 40 sec at 10,500 rpm using a PT-PA 3012/23 or ST-probe in 7 to 8 ml aliquots. To estimate breakage, the cells are monitored by light microscopy before and after homogenization. […]
The homogenates were centrifuged for 10 min at 1,000 rpm (175 g) to remove unbroken cells and nuclei and the supernatant was centrifuged a second time at 1.4 x 10^6 g min (e.g. 1 h at 23,500 g) to prepare a plasma membrane enriched microsome fraction. […] The purity of the plasma membrane was determined to be > 90% by electron microscope morphometry. […]
Spectrophometric assay of NADH oxidase. NADH oxidase activity was determined as the disappearance of NADH measured at 340 nm in a reaction mixture containing 25 mM Tris-MES buffer (pH 7.2), 1 mM KCN to inhibit the low levels of contaminating mitochondrial oxidase activity, and 150 µM NADH at 37°C with constant stirring. […]

Assay [3] concerns NADH oxidase activity of isolated plasma membranes of normal rat kidney cells. The assay is described as follows: NADH oxidase assay, plasma membranes of normal rat kidney cells.
In assay [4] the test system is circulating NADH oxidase in the serum. The assay is described as follows: NADH oxidase activity of human serum. It is filed as biochemical. On the procedure:
Spectrophometric assay of NADH oxidase. NADH oxidase activity was determined as the disappearance of NADH measured at 340 nm in a reaction mixture containing 25 mM Tris-MES buffer (pH 7.2), 1 mM KCN to inhibit the low levels of contaminating mitochondrial oxidase activity, and 150 µM NADH at 37°C with constant stirring. Activity was measured using a Hitachi U3210 spectrophotometer with continuous recording over two intervals of 5 min each. A millimolar extinction coefficient of 6.22 was used to determine specific activity.

Consider `COc1cc(CNC(=O)CCCC/C=C/C(C)C)ccc1O` [capsaicin], for which the “concentration at which growth is inhibited” value in the assay with normal rat kidney cells is recorded as > 10^-5 M. Also, in assay [1], the “Protein disulfide-thiol interchange activity” value is “.95 nmoles/min/mg protein”. For the same molecule, the IC50 with HeLa cells (read-out: concentration at which growth was 50% inhibited) was about 1000 nM. Moreover, the IC50 with HeLa cells (read-out: concentration of drug able to inhibit growth by 50%) was over 10000 nM. Moreover, the “inhibition of NADH oxidase activity (in words)” value in assay [2] is listed as “nearly completely inhibited”. Also, the “concentration at which NADH oxidase activity is inhibited” value in assay [3] is > 10^-5 M. In assay [4], the “NADH oxidase activities of human serum, Mean” value worked out at 0.56 and the “Ratio, Mean” value is 0.97.
